Measurements taken from paper PMC6348381, “Discovery of an MLLT1/3 YEATS Domain Chemical Probe” (Angewandte Chemie (International Ed. in English), 2018).

Columns and labels:
ATAD2A = target: T1, ATAD2A (Homo sapiens, UniProt Q6PL18); assay: Thermal shift assay, ATAD2A; type: binding
T1 construct: purchased in-house (SGC bromodomain thermal shift / AlphaScreen panel)
T1 sequence (Q6PL18 1-1390): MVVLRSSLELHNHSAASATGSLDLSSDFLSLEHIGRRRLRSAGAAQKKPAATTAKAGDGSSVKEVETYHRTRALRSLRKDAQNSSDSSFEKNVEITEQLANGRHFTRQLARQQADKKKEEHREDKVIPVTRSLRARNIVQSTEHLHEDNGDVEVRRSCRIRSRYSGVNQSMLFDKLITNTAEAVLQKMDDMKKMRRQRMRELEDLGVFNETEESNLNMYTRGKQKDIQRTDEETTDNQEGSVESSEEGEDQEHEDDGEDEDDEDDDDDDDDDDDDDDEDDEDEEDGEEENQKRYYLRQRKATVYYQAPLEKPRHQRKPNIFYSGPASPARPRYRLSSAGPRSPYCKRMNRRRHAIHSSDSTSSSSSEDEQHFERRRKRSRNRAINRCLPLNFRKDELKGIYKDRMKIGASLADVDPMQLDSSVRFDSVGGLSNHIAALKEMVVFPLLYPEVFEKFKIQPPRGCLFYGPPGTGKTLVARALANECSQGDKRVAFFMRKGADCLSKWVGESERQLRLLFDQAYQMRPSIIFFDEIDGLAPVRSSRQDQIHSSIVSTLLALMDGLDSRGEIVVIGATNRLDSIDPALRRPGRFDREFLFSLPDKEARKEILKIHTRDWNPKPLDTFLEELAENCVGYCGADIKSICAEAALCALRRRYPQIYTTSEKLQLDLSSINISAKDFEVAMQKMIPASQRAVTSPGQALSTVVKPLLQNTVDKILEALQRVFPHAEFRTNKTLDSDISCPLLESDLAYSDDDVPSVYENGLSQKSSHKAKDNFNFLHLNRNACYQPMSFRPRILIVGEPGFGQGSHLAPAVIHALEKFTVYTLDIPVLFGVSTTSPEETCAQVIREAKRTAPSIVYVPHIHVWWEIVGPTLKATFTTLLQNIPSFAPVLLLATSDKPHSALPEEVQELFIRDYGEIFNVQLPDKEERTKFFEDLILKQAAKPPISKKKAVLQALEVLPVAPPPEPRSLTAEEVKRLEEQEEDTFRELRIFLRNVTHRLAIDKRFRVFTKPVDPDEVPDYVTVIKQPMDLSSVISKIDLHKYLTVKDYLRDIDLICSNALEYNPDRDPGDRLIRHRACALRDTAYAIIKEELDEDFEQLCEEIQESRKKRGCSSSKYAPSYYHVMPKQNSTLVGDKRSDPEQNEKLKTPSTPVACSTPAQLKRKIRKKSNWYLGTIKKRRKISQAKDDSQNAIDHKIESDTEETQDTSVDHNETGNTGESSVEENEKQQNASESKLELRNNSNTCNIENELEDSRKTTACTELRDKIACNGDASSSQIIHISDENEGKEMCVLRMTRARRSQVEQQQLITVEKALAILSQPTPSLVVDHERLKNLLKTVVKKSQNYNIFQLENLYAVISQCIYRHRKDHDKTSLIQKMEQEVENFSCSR
Procedure: (§1) II.VII Thermal Shift Assay[6]
(§2) Thermal melting experiments were carried out using an Mx3005p Real Time PCR machine (Stratagene). Proteins were buffered in 10 mM HEPES pH 7.5, 500 mM NaCl and assayed in a 96-well plate at a final concentration of 2 μM in 20 μL volume. Compounds were added at a final concentration of 50 μM. SYPRO Orange (Molecular Probes) was added as a fluorescence probe at a dilution of 1:1000. Excitation and emission filters for the SYPRO-Orange dye were set to 465 nm and 590 nm, respectively. The temperature was raised with a step of 3 °C per minute from 25 °C to 96 °C and fluorescence readings were taken at each interval. The unfolding curves were fitted using the Boltzmann equation to determine the middle point of the transition.

KIAA1240 = target: T2, KIAA1240 (Homo sapiens, UniProt Q9ULI0); assay: Thermal shift assay, KIAA1240; type: binding
T2 construct: purchased in-house (SGC bromodomain thermal shift / AlphaScreen panel)
T2 sequence (Q9ULI0 1-1458): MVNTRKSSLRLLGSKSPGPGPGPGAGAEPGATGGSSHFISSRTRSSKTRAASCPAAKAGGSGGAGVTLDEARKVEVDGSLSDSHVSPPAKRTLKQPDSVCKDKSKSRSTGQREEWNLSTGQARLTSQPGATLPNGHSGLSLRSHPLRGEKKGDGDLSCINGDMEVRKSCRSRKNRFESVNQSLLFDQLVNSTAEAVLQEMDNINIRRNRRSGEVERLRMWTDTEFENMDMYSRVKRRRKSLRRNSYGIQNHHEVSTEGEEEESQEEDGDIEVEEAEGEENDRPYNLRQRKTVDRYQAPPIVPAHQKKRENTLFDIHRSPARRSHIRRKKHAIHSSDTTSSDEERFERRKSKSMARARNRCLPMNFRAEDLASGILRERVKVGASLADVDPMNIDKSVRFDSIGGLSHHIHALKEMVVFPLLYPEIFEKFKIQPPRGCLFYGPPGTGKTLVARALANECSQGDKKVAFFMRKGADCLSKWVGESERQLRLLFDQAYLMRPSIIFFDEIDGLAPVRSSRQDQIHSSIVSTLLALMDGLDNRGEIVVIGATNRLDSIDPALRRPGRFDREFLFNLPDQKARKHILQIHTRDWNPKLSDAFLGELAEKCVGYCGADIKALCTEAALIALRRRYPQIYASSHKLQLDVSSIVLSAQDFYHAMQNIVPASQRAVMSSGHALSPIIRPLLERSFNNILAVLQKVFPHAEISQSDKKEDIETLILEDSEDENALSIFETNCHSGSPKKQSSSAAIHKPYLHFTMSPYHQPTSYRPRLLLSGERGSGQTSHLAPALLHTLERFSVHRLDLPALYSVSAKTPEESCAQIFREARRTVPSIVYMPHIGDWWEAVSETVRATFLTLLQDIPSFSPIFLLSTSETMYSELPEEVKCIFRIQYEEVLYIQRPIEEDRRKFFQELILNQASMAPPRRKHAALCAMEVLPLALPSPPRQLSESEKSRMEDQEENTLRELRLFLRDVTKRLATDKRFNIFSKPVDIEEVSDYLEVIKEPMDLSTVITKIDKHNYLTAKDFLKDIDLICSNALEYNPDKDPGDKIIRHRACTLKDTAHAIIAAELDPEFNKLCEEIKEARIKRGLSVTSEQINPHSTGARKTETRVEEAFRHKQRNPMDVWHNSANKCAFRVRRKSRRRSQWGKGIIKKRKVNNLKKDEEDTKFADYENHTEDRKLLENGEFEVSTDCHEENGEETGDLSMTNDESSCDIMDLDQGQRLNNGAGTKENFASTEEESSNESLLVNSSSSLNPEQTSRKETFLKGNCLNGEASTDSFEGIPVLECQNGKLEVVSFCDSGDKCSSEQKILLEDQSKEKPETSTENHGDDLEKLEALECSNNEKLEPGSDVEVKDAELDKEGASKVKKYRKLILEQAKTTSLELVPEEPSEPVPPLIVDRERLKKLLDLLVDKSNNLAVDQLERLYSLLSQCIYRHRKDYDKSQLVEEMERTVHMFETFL
Procedure: as §1, §2

Compound	Thermal stabilisation, ATAD2A (ATAD2A; 10 µM compound concentration)	Thermal stabilisation, KIAA1240 (KIAA1240; 10 µM compound concentration)	Thermal stabilisation, ATAD2A (ATAD2A; 50 μM compound)	Thermal stabilisation, KIAA1240 (KIAA1240; 50 μM compound)
CCOC(=O)Nc1cc(-c2ccc(C)c(NS(C)(=O)=O)c2)nn2c(C)nnc12 [Bromosporine, reference compound]	0.67	0.59	–	–
COC(=O)c1ccc(C(=O)Nc2ccc3[nH]c(CN4CCCCC4)nc3c2)cc1 [Compound 1]	–	–	0.54	0.355
C[C@H]1CCCN1Cc1nc2cc(NC(=O)c3ccc4c(cnn4C)c3)ccc2[nH]1 [Compound 92]	–	–	0.56	0.15
